In PMC12254266, “Multicolored sequential resonance energy transfer for detection of simultaneous ligand binding at G protein-coupled receptors” (Nature Communications, 2025):
Values joined by “and” are separate entries in the source; they are usually repeats but may differ in a detail not shown here. Equal entries are not always repeated.

Key:
FFA1 [1] = target: T1, FFA1 (Homo sapiens, UniProt O14842); experiment: NanoBiT arrestin-3 recruitment in HEK293T cells; format: cell-based; parameters: expressed in transfected cells; host or cells: HEK293T, transient; details: for Arrestin recruitment (% TUG-905): technical duplicate
Description: For arrestin-3 recruitment assays, HEK293T cells were transfected with FFA1 receptor and a bystander NanoBiT split luciferase arrestin-3 recruitment biosensor. Cells were transfected and plated simultaneously in a reverse transfection protocol into a poly-D-lysine coated white 96-well plate. Per well, 60,000 cells were transfected with 5 ng plasmid expressing LgBiT with a N-terminal Lyn11 plasma membrane localisation tag, 5 ng plasmid expressing bovine arrestin-3 fused at its N-terminal to SmBiT tag and 30 ng plasmid expressing the human FFA1 receptor. Total DNA was made up to 100 ng total/well with empty pcDNA3 vector and transfected to cell suspension with 0.6 µg/well PEI. Following transfection cells were cultured for 24 h before use. On the day of assay, cells were washed twice with HBSS and incubated in HBSS for 30 min at 37 °C. NanoGlo substrate was added at a final 1:800 dilution and incubated in the dark for 10 min at 37 °C. […] Raw luminescence values were divided by baseline signal (average of first 5 data points prior to compound addition) and vehicle measurements subtracted from agonist treatment. Area under curves were calculated and concentration response curves plotted.

FFA1 [2] = target: T1, FFA1; experiment: Ca2+ mobilisation (Fura2) in Flp-In T-REx 293 cells expressing Nluc-FFA1, FFA1-Nluc or untagged FFA1; format: cell-based; parameters: expressed in transfected cells; details: for Ca2+ Response as a % of T360 Response: single technical replicates
Description: Nluc-FFA1, FFA1-Nluc or untagged FFA1 Flp-In T-REx 293 cells were plated at 50,000 cells per well in poly-D-lysine coated black clear bottom 96-well plates. Cells were then cultured for 24 h until reaching confluency before culture medium was replaced with medium containing 100 ng/mL of doxycycline to induce receptor expression. Cells were cultured for a further 24 h before the assay. On the day of the assay culture medium was removed and replaced with medium containing 3 μM Fura2-AM Ca^2+ dye. […] Fura2 fluorescent emission at 520 nm following excitation with each of 340 and 380 nm was measured in regular intervals both before and after adding test compounds for a total of 90 s per well. Calcium responses were determined by taking the peak 340/380 ratio after first subtracting the ratios obtained prior to addition of test compound.

FFA1-Nluc = FFA1-Nluc (Homo sapiens, UniProt O14842); experiment: DISCo-BRET (endpoint, spectra scan, kinetics) with TUG-2591 and TUG-2597 at C terminal Nluc tagged FFA1; format: binding; parameters: expressed in transfected cells; details: for Specific BRET (540/450), % of control: Figure 4Bii, single replicate values (technical duplicate)
Procedure, shortened: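 Flp-In T-REx 293 cells expressing Nluc-tagged FFA1 were induced with 100 ng/mL doxycycline for 24 h, then given Nano-Glo (1:800 final). Endpoint and spectral reads were taken 5 min after ligand at 37 °C; kinetics were read at 25 °C with sequential ligand additions. BRET ratios were taken from Nluc, NBD and SulfoCy5 emissions.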

Chain of FFA1-Nluc (O14842 whole entry): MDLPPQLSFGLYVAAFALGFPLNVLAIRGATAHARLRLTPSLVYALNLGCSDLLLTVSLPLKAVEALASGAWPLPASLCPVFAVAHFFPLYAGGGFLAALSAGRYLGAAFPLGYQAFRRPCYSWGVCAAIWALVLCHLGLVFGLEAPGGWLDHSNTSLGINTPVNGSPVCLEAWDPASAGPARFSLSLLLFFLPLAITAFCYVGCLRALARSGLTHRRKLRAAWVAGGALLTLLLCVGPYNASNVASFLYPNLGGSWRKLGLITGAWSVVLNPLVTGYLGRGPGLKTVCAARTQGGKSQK
T1 sequence (O14842 whole entry, the tested form may be a part): as the sequence (O14842 whole entry) above

COc1ccc(C(=O)N(CC(C)(C)C)c2cccc(C)n2)c(N2CCC(COc3cccc(C(CC(=O)O)C4CC4)c3)CC2)c1.O=C(O)C(F)(F)F (stereo not drawn) [Cpd 6h, reference compound]
Arrestin recruitment (% TUG-905) (FFA1 [1]; log[ligand] -6): 78.0249 % TUG-905 and 64.444 % TUG-905 and 40.7503 % TUG-905 and 51.9792 % TUG-905 and 61.8079 % TUG-905 and 63.543 % TUG-905 | Arrestin recruitment (% TUG-905) (FFA1 [1]; log[ligand] -6.5): 82.3608 % TUG-905 and 53.7805 % TUG-905 and 51.6658 % TUG-905 and 54.0552 % TUG-905 and 67.7023 % TUG-905 and 49.6983 % TUG-905 | Arrestin recruitment (% TUG-905) (FFA1 [1]; log[ligand] -7.5): 66.0536 % TUG-905 and 57.1103 % TUG-905 and 48.5714 % TUG-905 and 47.0829 % TUG-905 and 58.219 % TUG-905 and 65.2186 % TUG-905 | Arrestin recruitment (% TUG-905) (FFA1 [1]; log[ligand] -8): 69.0414 % TUG-905 and 63.7801 % TUG-905 and 51.8356 % TUG-905 and 46.0645 % TUG-905 and 48.8783 % TUG-905 and 52.0275 % TUG-905 | EMax (% TUG-905) arrestin-3 recruitment (FFA1 [1]; percentage of the response to 10 μM TUG-905, ± SEM): 54 ± 6% | pEC50 arrestin-3 recruitment (FFA1 [1]; ± SEM, N=3): 9.1 ±0.1 | pEC50 (FFA1 [2]; Ca2+ data, mean±SEM, NR = No response): 7.58±0.37 | Ca2+ Response as a % of T360 Response (FFA1 [2]; log[Ligand] -5): 84.6341% and 118.5422% and 131.5391% and 131.6815% | Ca2+ Response as a % of T360 Response (FFA1 [2]; log[Ligand] -5.5): 110.3362% and 90.2944% and 104.2328% and 116.7691% and 104.8460% and 102.3011% | Ca2+ Response as a % of T360 Response (FFA1 [2]; log[Ligand] -6): 71.8152% and 70.2762% and 114.0711% and 118.1782% and 101.8675% and 96.5850% | Ca2+ Response as a % of T360 Response (FFA1 [2]; log[Ligand] -6.5): 60.3759% and 123.2785% and 113.4233% and 101.5371% and 93.1451% | Ca2+ Response as a % of T360 Response (FFA1 [2]; log[Ligand] -7): 63.1956% and 51.7459% and 118.1727% and 120.9922% and 92.4678% and 86.2833% | Ca2+ Response as a % of T360 Response (FFA1 [2]; log[Ligand] -8): 10.9661% and -4.3988% and 87.5826% and 74.3785% and 6.7799% and 2.9748% | Ca2+ Response as a % of T360 Response (FFA1 [2]; log[Ligand] -9): -2.3895% and -2.3898% and 3.1637% and 3.9796% and -0.4916% and 4.7706% | EMax (FFA1 [2]; percentage of response to 10 μM T360, NR = No response): 108±8% | pIC50 DISCo-BRET NBD/Nluc (FFA1-Nluc; 100 nM TUG-2591 and […] TUG-2597, NC = No competition): 7.3±0.1 | pIC50 DISCo-BRET SulfoCy5/NBD (FFA1-Nluc; 100 nM TUG-2591 and […] TUG-2597, one site model, NC = No competition): 7.4±0.1 | Specific BRET (540/450), % of control (FFA1-Nluc; log[Ligand] -5): 29.23 % of control and -1.54 % of control and -0.53 % of control and 0.53 % of control and 0.62 % of control and 6.18 % of control and -2.77 % of control and 4.56 % of control and -7.63 % of control and 10.97 % of control | Specific BRET (540/450), % of control (FFA1-Nluc; log[Ligand] -5.5): 46.57 % of control and -7.13 % of control and 13.78 % of control and 13.63 % of control and 17.56 % of control and 19.08 % of control and -1.79 % of control and 0.81 % of control and 1.43 % of control and -21.22 % of control | Specific BRET (540/450), % of control (FFA1-Nluc; log[Ligand] -6): 59.72 % of control and 23.08 % of control and 13.18 % of control and 6.55 % of control and 14.37 % of control and 13.95 % of control and 102.77 % of control and 7.65 % of control and 12.16 % of control and 25.98 % of control | Specific BRET (540/450), % of control (FFA1-Nluc; log[Ligand] -6.5): 46.01 % of control and 12.17 % of control and 20.56 % of control and 31.70 % of control and 26.58 % of control and 36.43 % of control and 14.98 % of control and 12.87 % of control and 22.17 % of control and 15.73 % of control | Specific BRET (540/450), % of control (FFA1-Nluc; log[Ligand] -7): 46.01 % of control and 48.53 % of control and 38.93 % of control and 54.59 % of control and 43.79 % of control and 54.75 % of control and 36.48 % of control and 23.45 % of control and 26.46 % of control and 27.41 % of control | Specific BRET (540/450), % of control (FFA1-Nluc; log[Ligand] -8): 134.69 % of control and 121.26 % of control and 83.36 % of control and 78.84 % of control and 78.63 % of control and 91.67 % of control and 70.36 % of control and 75.90 % of control and 108.22 % of control and 143.98 % of control | Specific BRET (540/450), % of control (FFA1-Nluc; log[Ligand] -9): 144.76 % of control and 148.39 % of control and 88.63 % of control and 100.08 % of control and 88.76 % of control and 93.89 % of control and 95.60 % of control and 108.79 % of control and 114.18 % of control and 110.13 % of control | 'bottom' of the IC50 curve, DISCo-BRET NBD/Nluc (FFA1-Nluc; percentage of binding obtained in the absence of competing ligand): 9.3% | 'bottom' of the IC50 curve, DISCo-BRET SulfoCy5/NBD (FFA1-Nluc; percentage of binding obtained in the absence of competing ligand, 100 nM TUG-2591 and […] TUG-2597): 16% | pKi DISCo-BRET NBD/Nluc (FFA1-Nluc; using Kd TUG-2597 380 nM): 7.5±0.1
